Entries after “also recorded” stand apart in the source; their conditions may differ.
Experiments:
[1] = system: primary cystic fibrosis airway epithelial cells; test: MCC formation in cystic fibrosis airway epithelial cultures; assay type: cell-based, human; conditions: for MCC differentiation with semagacestat in combination with Lumacaftor (and Ivacaftor): semagacestat ALI+0-21d, Lumacaftor ALI+19-21d, Ivacaftor ten minutes, wild-type and CF cultures; for MCC/total cell ratio in CF patient-derived cultures: treated during differentiation only (ALI+0 to +21d), homemade medium
Description: To assess the effects of combining semagacestat and CFTR modulator treatment, wild-type control and CF (F508AIF5080) HNEC cultures were grown to maturity with or without semagacestat from ALI+0-21d and cultures were treated with or without Lumacaftor (VX-809) from ALI+19-21d and Ivacaftor (VX-770) for ten minutes prior to fixation. PFA fixed membranes were then stained for Acetylated tubulin (green; MCCs) and E-Cadherin (red).
Primary healthy and cystic fibrosis airway epithelial cells were treated with semagacestat (LY45139) during differentiation only (ALI+0 to +21 d) and labeled at ALI+21d with anti-acetylated α-Tubulin (green) and ECAD (red) antibodies. […] Restoration of a healthy MCC/total cell ratio is expected to improve mucociliary clearance.
Mature (ALI+30d) primary cystic fibrosis human airway epithelial cells were treated with DAPT for one week (ALI+30 to +37d), then labeled with anti-acetylated α-Tubulin (green) and ECAD (red) antibodies.
As observed in healthy HNECs, GSI-induced multiciliated cells in CF HNECs are structurally normal, and GSI treatment in both differentiating and mature CF cultures can mitigate multiciliated cell loss (FIG. 41, 43A-B).
Primary human nasal epithelial cell (HNEC) cultures. […] Primary air-liquid interface (ALI) culture of nasal epithelial cells from passage 0 (P0) or P1 basal stem cells was carried out as previously described (24,30). Briefly, cells are removed from cytobrushes with gentle enzymatic digestion. P0 HNEC cultures are initiated by seeding freshly isolated cells onto Collagen I coated Transwell filters. P1 HNEC cultures are initiated from basal cells that were first expanded on Collagen I coated plastic dishes in proliferation medium supplemented with Y-27632 (ROCK inhibitor, 10 μM), DMH-1 (BMP inhibitor, 1 μM), A-83-01, (TGF-β inhibitor, 1 μM), and CHIR99021 (WNT agonist, 1 μM)(42), all from Selleckchem. HNECs seeded onto Transwells are initially cultured submerged in proliferation medium until confluency, then lifted to ALI (considered as ALI+0d of culture) by supplying differentiation medium only from the bottom compartment. HNECs are considered mature at ALI+21d of culture. Healthy and CF HNECs used in the study were cultured in homemade media (24). CF HNECs used for the Ussing chamber measurements only were cultured in Pneumacult Ex+(proliferation) and Pneumacult ALI (differentiation) media (Stemcell). […] Healthy HNECs were treated with 10 ng/ml recombinant human IL-13 (RnD Systems).

[2] = system: primary human nasal epithelial cells (HNECs); test: Multiciliated cell (MCC) formation in HNEC air-liquid interface (ALI) cultures; assay type: cell-based; conditions: for multiciliated cell formation by apical versus basal application: ALI+0 to +21d from either the apical or basal surface; for multiciliated cell numbers, treatment during differentiation: differentiation only (ALI+0 to +21d) and continuous (preALI+ALI) treatments; for toxicity / disruption of epithelial structure at high concentration: micromolar doses (10 μM for LY450139); for multiciliated cell formation at the low concentration: low dose (based on IC50 for Notch inhibition); for multiciliated cell formation at the low concentration / multiciliated cell formation, treatment during proliferation only: labeled ALI+21d; for multiciliated cell formation in mature cultures: mature (ALI+30d) cultures treated one (ALI+30 to +37d) or two weeks (ALI+30 to +44d); for multiciliated cell formation, treatment during proliferation only: pre-ALI only (ALI-5 to -1d)
Description: Air-Liquid Interface (ALI) cultures were prepared as described in Vladar E K, Nayak J V, Milla C E, Axelrod J D. Airway epithelial homeostasis and planar cell polarity signaling depend on multiciliated cell differentiation. JCI Insight. 2016; 1(13); e88027. Human nasal epithelial cells (HNECs) were generated from human sinonasal epithelial brushings or from tissue obtained from patients undergoing endoscopic sinus surgery at Stanford Hospital and cultured as described in Vladar et al.
Cultures were treated with varying doses of semagacestat. DAFT (Abcam) was used ([…]) as a positive cone ml for GSI activity. Cultures were labeled at ALI+21 d with anti-acetylated α-tubulin (green) and ECAD (red) antibodies to mark cilia and epithelial junctions. […] The ratio was defined as MCC number/total luminal cells. Counting was done on one representative image from 5 culture replicates from a single donor.
Primary human airway epithelial cells were treated with DAPT and LY45139: i) during proliferation only (ALI-5 to -Id), ii) during differentiation only (ALI+0 to +21d) or iii) continuously during the entire culture duration, followed by labeling at ALI+21d with anti-acetylated α-Tubulin (green) and ECAD (red) antibodies.
Mature (ALI+30d) primary human airway epithelial cells were treated with DAFT and semagacestat for one (ALI+30 to +37d) or two weeks (ALI+30 to +44d), then labeled with anti-acetylated α-Tubulin (green) and ECAD (red) antibodies.
Primary human airway epithelial cells were treated with DAFT and LY45139 during differentiation only (ALI+0 to +21d) from either the apical or basal surface, then labeled at ALI+21d with anti-acetylated α-Tubulin (green) and ECAD (red) antibodies. […] Apical treatment eliminates the air-liquid interface, which results in the poor epithelial structure and multiciliated cell differentiation in the untreated cultures, which is partially rescued by GSI treatment.
While this effect may be beneficial as a therapeutic, DAPT is not suitable for human use. It was sought to identify GSIs for potential therapeutic application among small molecules previously used in clinical trials that were developed to have acceptable drug-like properties. […] Healthy human nasal epithelial cell (HNEC) primary cultures were grown at air-liquid interface (ALI) in homemade culture medium to support the consistent differentiation of multiciliated cells as approximately 45-55% of the luminal cells, similar to the in vivo airways (24) (FIG. 35A, 40A). The use of homemade culture medium is important, as cultures grown in commercially available Pneumacult medium often contain 85-95% multiciliated cells at the luminal surface (FIG. S4A). HNECs were treated with a low and high dose (based on IC50 for Notch inhibition, Selleckchem) of each compound during the entire 21 days of ALI differentiation (ALI+0 to 21d). The fraction of mature multiciliated cells was quantitated using wholemount ac. α-Tubulin antibody (marks ciliary axonemes) labeling. […] DMSO control treatment had no effect on multiciliated cell number (FIG. 40A).
HNEC primary culture comprises an initial proliferative phase when basal stem cells establish the epithelial layer under submerged culture conditions (preALI), followed by differentiation induced, in part, by lifting to ALI (30). Thus, HNECs can be used to test GSI response in both regenerative and homeostatic settings. Notch signaling between luminal cells controls epithelial cell fate, but it is also active in basal cells and regulates their differentiation and survival (14,18,31). Thus, it was asked if the GSIs LY450139 or DAFT during the proliferative preALI phase only or during the entire culture duration (proliferative+differentiation; preALI+ALI) can induce multiciliated cell formation and if GSI treatment during stem cell proliferation has detrimental effects. PreALI, GSIs was added to both the apical and basal media, and during ALI, cultures were only treated basally. […]

[3] = ALI+0 to +21d, listed as LY45139
[4] = ALI+0 to +21d, listed as LY450139
[5] = treated during differentiation ALI+0 to +21d

With `CC(C)[C@H](O)C(=O)N[C@@H](C)C(=O)N[C@@H]1C(=O)N(C)CCc2ccccc21` [semagacestat, (2S)-2-hydroxy-3-methyl-N-[(1 S)-1-methyl-2-oxo-2-[[(1 S)-2,3,4,5-tetrahydro-3-methyl-2-oxo-1H-3-benzazepin-1-yl]amino]ethyl]-butamide] the “MCC differentiation with semagacestat in combination with Lumacaftor (and Ivacaftor)” value [1] was “as well as or better than cultures treated with semagacestat alone; also recorded: no significant decrease in semagacestat-induced MCC response was seen”, the “MCC differentiation with semagacestat in combination with Lumacaftor (and Ivacaftor)” value ([1]; listed as Semagacestat) was “effective at increasing the percentage of MCCs in the presence of Lumacaftor” and the “MCC response of CF patients not eligible for Trikafta” value ([1]; semagacestat alone, not shown) was “respond to semagacestat alone similarly to those on corrector therapy”. The “MCC/total cell ratio in CF patient-derived cultures” value ([1]; listed as LY45139) was “effective in increasing MCC/total cell ratio”, the “MCC/total cell ratio in CF patient-derived cultures” value ([1]; listed as LY450139) was “similarly normalized proportion of multiciliated cells; also recorded: restores multiciliated cell numbers in CF cultures; also recorded: increases multiciliated cell number in CF cultures” and the “proportion of multiciliated cells” value ([2]; 10 μM, ALI+0 to +21d) was “significant decrease”. For the same compound, the “proportion of multiciliated cells” value ([2]; 15.625 to 500 nM, ALI+0 to +21d) was “significant increase”, the “multiciliated cell formation by apical versus basal application” value ([2]; listed as LY45139) was “induces ciliated cell formation via both apical and basal application” and the “multiciliated cell formation by apical versus basal application” value ([2]; listed as LY450139) was “just as efficacious as basal treatment; also recorded: induces multiciliated cell formation via both apical and basal application”. The “effect on Notch signaling and differentiation towards MCCs” value ([2]; administered in the nanomolar range to human nasal epithelial cells) was “effective in blocking Notch signaling, driving differentiation towards MCCs”, the “number of multiciliated cells, apical only treatment of submerged cultures” value ([2]; apical only, submerged cultures, vs untreated submerged cells) was “approximately double the number of multiciliated cells” and the “multiciliated cell numbers, treatment during differentiation” value ([2]; listed as LY45139) was “increased MCC cell numbers”. For the same compound, the “multiciliated cell numbers, treatment during differentiation” value ([2]; listed as LY450139) was “significant increase in the proportion of multiciliated cells; also recorded: increased multiciliated cell numbers”, the “toxicity / disruption of epithelial structure at high concentration” value (“toxicity / disruption” below) ([2]; ALI+0 to +21d) was “Toxicity is observed at micromolar doses” and the “toxicity / disruption” value [2, 3] was “disrupted epithelial structure”. For the same compound, the “toxicity / disruption” value [2, 4] was “disrupted the epithelial junctions; also recorded: disrupted epithelial structure”, the “multiciliated cell formation at the low concentration” value [2, 3] was “induced multiciliated cell formation” and the “multiciliated cell formation at the low concentration” value [2, 4] was “able to induce the formation of extra multiciliated cells; also recorded: induced multiciliated cell formation”. For the same compound, the “dose dependence of multiciliated cell numbers” value ([2]; lower (nM) concentrations, ALI+0 to +21d, listed as LY450139) was “increases the proportion of multiciliated cells in a dose dependent manner; also recorded: dose dependent increase in multiciliated cell numbers”, the “multiciliated cell formation in mature cultures” value [2] was “induces the formation of additional multiciliated cells in mature cultures” and the “multiciliated cell formation in mature cultures” value ([2]; listed as LY450139) was “robust induction of multiciliated cell formation; also recorded: able to drive multiciliated cell formation in differentiating as well as mature, homeostatic airway epithelial cultures; also recorded: induces the formation of additional multiciliated cells in mature cultures”. For the same compound, the “multiciliated cell formation, treatment during proliferation only” value ([2]; listed as LY45139) was “had no effect on differentiation”, the “multiciliated cell formation, treatment during proliferation only” value ([2]; listed as LY450139) was “not sufficient to induce extra multiciliated cell formation; also recorded: no observable effect on subsequent differentiation; also recorded: no detrimental effect on multiciliated cells or overall epithelial structure” and the “ratio MCC number/total luminal cells” value ([2]; semagacestat 500 nM to 31.25 nM, labeled at ALI+21 d, vs untreated, p<0.01 by ANOVA) was “significant increases”. For the same compound, the “concentration at which the percentage of MCCs reaches its maximum / begins to plateau” value [2, 5] was “around 125 nM” and the “lowest concentration able to effectively increase the proportion of multiciliated cells” value [2, 5] was 31.25 nM.
